According to ChEMBL document CHEMBL5724558, “Image-based profiling of drug vulnerabilities in CRC organoids” (2024):
Where “and” joins values, the source holds several entries; their conditions need not be identical. Equal entries are not always repeated.

Key:
Type in all cases: functional, Homo sapiens
Design in all cases: dose or concentration left out as unconfirmed
Colon cancer organoid [1] = assay: (§1) Image-based profiling of donated chemical probes and chemogenomic kinase set in O06 CRC organoid. Image analysis is performed on the sum area metric, and the data were normalized to the DMSO control. After imaging the organoid viability is measured using the OneGloEX Luciferase Assay System. The normalized viability data and sum area are reported.
Colon cancer organoid [2] = assay: as §1, with “O09” for “O06”
Colon cancer organoid [3] = assay: as §1, with “O21” for “O06”

SMILES	Cell Viability (Colon cancer organoid [1]; Replication number 1)	Cell Viability (Colon cancer organoid [1]; Replication number 2)	Cell Viability (Colon cancer organoid [2]; Replication number 1)	Cell Viability (Colon cancer organoid [2]; Replication number 2)	Cell Viability (Colon cancer organoid [3]; Replication number 1)	Cell Viability (Colon cancer organoid [3]; Replication number 2)
NS(=O)(=O)c1cc(NC(=O)Cc2ccccc2)ccc1Oc1cccc(Cl)c1 [BAY-1797]	118.794% and 140.984%	77.9849% and 83.6245%	109.148% and 118.264%	102.589% and 110.989%	97.444% and 106.533%	100.538% and 94.898%
CCc1ccccc1C(=O)Nc1n[nH]c2c(C)c(F)c(C3C(C#N)=C(C)N(C)C(C)=C3C#N)cc12 [BAY-3827]	111.052% and 125.293%	118.254% and 98.7859%	62.8379% and 77.8869%	39.4727% and 62.2125%	104.538% and 100.129%	99.5085% and 100.51%
Cn1cc(Cl)c2c(Oc3c(F)cc(Nc4cc(Cl)nc(N)n4)cc3F)ccnc21 [BAY-4900]	133.628% and 127.773%	114.004% and 114.608%	73.6043% and 111.604%	79.5869% and 90.6027%	120.472% and 95.4893%	100.602% and 97.8926%
Cc1c(N2CCCC2)nc2ccc(Br)cc2c1C(=O)NC[C@H](CCC(=O)O)c1ccccc1Cl [BAY-6672]	80.703% and 111.012%	84.0903% and 90.3412%	62.7098% and 89.8462%	112.488% and 108.842%	101.261% and 132.048%	101.473% and 100.952%
CC(=O)N1CCC(c2ccc(C(=O)NC3=NCCN3)cc2C(F)(F)F)CC1 [BI 0054]	118.453% and 112.646%	54.9204% and 58.7504%	145.728% and 140.005%	185.058% and 111.866%	108.593% and 93.1436%	106.585% and 84.6939%
CN(C)C(=O)Cn1cc(-c2nc(C3(c4ccc(-c5cnc(N)nc5)cc4)CC3)no2)cn1 [BI 0153]	106.576% and 110.07%	80.0994% and 77.4652%	152.465% and 95.0889%	176.713% and 106.608%	115.747% and 91.3972%	95.3195% and 84.6939%
COc1ccc2c(O[C@@H]3C[C@H]4C(=O)N[C@]5(C(=O)O)CC5/C=C\CCCCC[C@H](NC(=O)OC5CCCC5)C(=O)N4C3)cc(-c3csc(NC(=O)C(C)C)n3)nc2c1C (stereo partly drawn) [BI 1230]	145.195% and 153.864%	115.735% and 122.476%	106.493% and 128.298%	89.1059% and 82.6579%	91.3171% and 103.622%	114.827% and 120.408%
O=C(N[C@H]1CCCCC/C=C\C2C[C@@]2(C(=O)O)NC(=O)[C@@H]2C[C@@H](Oc3ccncc3)CN2C1=O)OC1CCCC1 (stereo partly drawn) [BI 1675]	69.4015% and 71.6628%	66.5819% and 62.7776%	116.319% and 81.4707%	190.904% and 132.895%	85.4317% and 92.5614%	88.5187% and 94.3878%
CCOCCn1cc(C(=O)Nc2ccc(-n3nc(-c4cccnc4)cc3C(F)(F)F)cn2)ccc1=O [BI 1935]	106.067% and 119.906%	111.838% and 96.8907%	99.959% and 99.8673%	61.8115% and 83.5341%	115.071% and 97.8008%	110.735% and 98.9796%
C[C@H](NC(=O)c1cnc2n1[C@](C)(Cc1ccc(C#N)cc1)C(=O)N2c1cc(Cl)c(F)c(Cl)c1)C(=O)NC1(c2ccccn2)CC1 [BI 1950]	114.343% and 119.672%	141.649% and 119.396%	132.005% and 114.441%	125.066% and 107.777%	97.6765% and 100.712%	88.7319% and 89.7959%
CC(C)(C#Cc1ccc(NC(=O)COc2ccccc2C(=O)c2ccccc2)c(Cl)c1)C(=O)O [BI 2439]	94.1417% and 101.057%	69.7928% and 91.0899%	115.901% and 103.937%	114.023% and 92.0585%	94.7659% and 113.344%	112.811% and 119.578%
Cc1c(NC(=O)COc2ccc(Cl)cc2C(=O)c2cc(F)cc(C(F)(F)F)c2)ccc(C(=O)O)c1F [BI 2540]	58.8741% and 96.3504%	87.0416% and 104.656%	121.956% and 104.432%	133.179% and 113.341%	96.7046% and 115.044%	105.62% and 95.2087%
O=C(NC[C@@H]1[C@H]2CN(C(=O)OCc3cc(C(F)(F)F)cc(C(F)(F)F)c3)C[C@@H]12)c1ccc2[nH]nnc2c1 [BI 2545]	131.534% and 122.248%	107.128% and 130.293%	189.417% and 138.094%	118.998% and 92.5885%	93.6308% and 96.6365%	84.4904% and 89.2857%
